Laboratory results reported in ChEMBL document CHEMBL5724914, “Linking interpersonal differences in gut microbiota composition and drug biotransformation activity” (2024).

Assay: (§1) The drug is tested on Z-028 corresponding to mouse gut metagenome with ENA study accession number: PRJEB37062 and ENA sample accession number: ERS12561827 for biotransformation under anaerobic condition. The drug concentrations were measured over 9 timepoints collected between 0 and 24 hours of incubation by liquid-chromatography-coupled mass spectrometry (LC–MS)
Conditions: 2 µM
Also: call rule not given here.

| SMILES | Bacterial Biotransformation |
| --- | --- |
| CN1CCN(C2=Nc3cc(Cl)ccc3Nc3ccccc32)CC1 [CLOZAPINE] | Compound NOT metabolized |
| O=C(O)CCc1nc(-c2ccccc2)c(-c2ccccc2)o1 [OXAPROZIN] | Compound NOT metabolized |

Assay: as §1, with “Z-027” for “Z-028”, “to” for “to mouse gut”, “ERS12561826” for “ERS12561827”
Conditions: 2 µM

| SMILES | Bacterial Biotransformation |
| --- | --- |
| CN1CCN(C2=Nc3cc(Cl)ccc3Nc3ccccc32)CC1 [CLOZAPINE] | Compound NOT metabolized |
| O=C(O)CCc1nc(-c2ccccc2)c(-c2ccccc2)o1 [OXAPROZIN] | Compound metabolized |

Assay: as §1, with “Z-024” for “Z-028”, “pig” for “mouse”, “ERS12561823” for “ERS12561827”
Conditions: 2 µM

| SMILES | Bacterial Biotransformation |
| --- | --- |
| CN1CCN(C2=Nc3cc(Cl)ccc3Nc3ccccc32)CC1 [CLOZAPINE] | Compound NOT metabolized |
| O=C(O)CCc1nc(-c2ccccc2)c(-c2ccccc2)o1 [OXAPROZIN] | Compound NOT metabolized |

Assay: as §1, with “Z-020” for “Z-028”, “rabbit” for “mouse”, “ERS12561819” for “ERS12561827”
Conditions: 2 µM

| SMILES | Bacterial Biotransformation |
| --- | --- |
| CN1CCN(C2=Nc3cc(Cl)ccc3Nc3ccccc32)CC1 [CLOZAPINE] | Compound NOT metabolized |
| O=C(O)CCc1nc(-c2ccccc2)c(-c2ccccc2)o1 [OXAPROZIN] | Compound metabolized |

Assay: as §1, with “Z-013” for “Z-028”, “rabbit” for “mouse”, “ERS12561813” for “ERS12561827”
Conditions: 2 µM

| SMILES | Bacterial Biotransformation |
| --- | --- |
| CN1CCN(C2=Nc3cc(Cl)ccc3Nc3ccccc32)CC1 [CLOZAPINE] | Compound NOT metabolized |
| O=C(O)CCc1nc(-c2ccccc2)c(-c2ccccc2)o1 [OXAPROZIN] | Compound NOT metabolized |

Assay: as §1, with “Z-009” for “Z-028”, “pig” for “mouse”, “ERS12561809” for “ERS12561827”
Conditions: 2 µM

| SMILES | Bacterial Biotransformation |
| --- | --- |
| CN1CCN(C2=Nc3cc(Cl)ccc3Nc3ccccc32)CC1 [CLOZAPINE] | Compound NOT metabolized |
| O=C(O)CCc1nc(-c2ccccc2)c(-c2ccccc2)o1 [OXAPROZIN] | Compound NOT metabolized |

Assay: as §1, with “Z-007” for “Z-028”, “rat” for “mouse”, “ERS12561807” for “ERS12561827”
Conditions: 2 µM

| SMILES | Bacterial Biotransformation |
| --- | --- |
| CN1CCN(C2=Nc3cc(Cl)ccc3Nc3ccccc32)CC1 [CLOZAPINE] | Compound NOT metabolized |
| O=C(O)CCc1nc(-c2ccccc2)c(-c2ccccc2)o1 [OXAPROZIN] | Compound NOT metabolized |

Assay: as §1, with “Z-001” for “Z-028”, “ERS12561801” for “ERS12561827”
Conditions: 2 µM

| SMILES | Bacterial Biotransformation |
| --- | --- |
| CN1CCN(C2=Nc3cc(Cl)ccc3Nc3ccccc32)CC1 [CLOZAPINE] | Compound NOT metabolized |
| O=C(O)CCc1nc(-c2ccccc2)c(-c2ccccc2)o1 [OXAPROZIN] | Compound NOT metabolized |

Assay: as §1, with “WLS-082” for “Z-028”, “human” for “mouse”, “ERS12561751” for “ERS12561827”
Conditions: 2 µM

| SMILES | Bacterial Biotransformation |
| --- | --- |
| CN1CCN(C2=Nc3cc(Cl)ccc3Nc3ccccc32)CC1 [CLOZAPINE] | Compound NOT metabolized |
| O=C(O)CCc1nc(-c2ccccc2)c(-c2ccccc2)o1 [OXAPROZIN] | Compound metabolized |

Assay: as §1, with “WLS-006” for “Z-028”, “human” for “mouse”, “ERS12561741” for “ERS12561827”
Conditions: 2 µM

| SMILES | Bacterial Biotransformation |
| --- | --- |
| CN1CCN(C2=Nc3cc(Cl)ccc3Nc3ccccc32)CC1 [CLOZAPINE] | Compound NOT metabolized |
| O=C(O)CCc1nc(-c2ccccc2)c(-c2ccccc2)o1 [OXAPROZIN] | Compound metabolized |

Conditions: human gut metagenome, 24 h, 2 µM

| SMILES | Bacterial Biotransformation |
| --- | --- |
| CN1CCN(C2=Nc3cc(Cl)ccc3Nc3ccccc32)CC1 [CLOZAPINE] | Compound NOT metabolized |
| O=C(O)CCc1nc(-c2ccccc2)c(-c2ccccc2)o1 [OXAPROZIN] | Compound NOT metabolized |

Conditions: human gut metagenome, 24 h, 2 µM
Remark: another data set of the same source

| SMILES | Bacterial Biotransformation |
| --- | --- |
| CN1CCN(C2=Nc3cc(Cl)ccc3Nc3ccccc32)CC1 [CLOZAPINE] | Compound NOT metabolized |
| O=C(O)CCc1nc(-c2ccccc2)c(-c2ccccc2)o1 [OXAPROZIN] | Compound metabolized |

Conditions: human gut metagenome, 24 h, 2 µM
Remark: another data set of the same source

| SMILES | Bacterial Biotransformation |
| --- | --- |
| CN1CCN(C2=Nc3cc(Cl)ccc3Nc3ccccc32)CC1 [CLOZAPINE] | Compound metabolized |
| O=C(O)CCc1nc(-c2ccccc2)c(-c2ccccc2)o1 [OXAPROZIN] | Compound metabolized |

Conditions: human gut metagenome, 24 h, 2 µM
Remark: another data set of the same source

| SMILES | Bacterial Biotransformation |
| --- | --- |
| CN1CCN(C2=Nc3cc(Cl)ccc3Nc3ccccc32)CC1 [CLOZAPINE] | Compound metabolized |
| O=C(O)CCc1nc(-c2ccccc2)c(-c2ccccc2)o1 [OXAPROZIN] | Compound metabolized |

Conditions: human gut metagenome, 24 h, 2 µM
Remark: another data set of the same source

| SMILES | Bacterial Biotransformation |
| --- | --- |
| CN1CCN(C2=Nc3cc(Cl)ccc3Nc3ccccc32)CC1 [CLOZAPINE] | Compound metabolized |
| O=C(O)CCc1nc(-c2ccccc2)c(-c2ccccc2)o1 [OXAPROZIN] | Compound metabolized |

Conditions: human gut metagenome, 24 h, 2 µM
Remark: another data set of the same source

| SMILES | Bacterial Biotransformation |
| --- | --- |
| CN1CCN(C2=Nc3cc(Cl)ccc3Nc3ccccc32)CC1 [CLOZAPINE] | Compound metabolized |
| O=C(O)CCc1nc(-c2ccccc2)c(-c2ccccc2)o1 [OXAPROZIN] | Compound metabolized |

Conditions: human gut metagenome, 24 h, 2 µM
Remark: another data set of the same source

| SMILES | Bacterial Biotransformation |
| --- | --- |
| CN1CCN(C2=Nc3cc(Cl)ccc3Nc3ccccc32)CC1 [CLOZAPINE] | Compound metabolized |
| O=C(O)CCc1nc(-c2ccccc2)c(-c2ccccc2)o1 [OXAPROZIN] | Compound metabolized |

Conditions: human gut metagenome, 24 h, 2 µM
Remark: another data set of the same source

| SMILES | Bacterial Biotransformation |
| --- | --- |
| CN1CCN(C2=Nc3cc(Cl)ccc3Nc3ccccc32)CC1 [CLOZAPINE] | Compound NOT metabolized |
| O=C(O)CCc1nc(-c2ccccc2)c(-c2ccccc2)o1 [OXAPROZIN] | Compound metabolized |

Conditions: human gut metagenome, 24 h, 2 µM
Remark: another data set of the same source

| SMILES | Bacterial Biotransformation |
| --- | --- |
| CN1CCN(C2=Nc3cc(Cl)ccc3Nc3ccccc32)CC1 [CLOZAPINE] | Compound metabolized |
| O=C(O)CCc1nc(-c2ccccc2)c(-c2ccccc2)o1 [OXAPROZIN] | Compound metabolized |

Conditions: human gut metagenome, 24 h, 2 µM
Remark: another data set of the same source

| SMILES | Bacterial Biotransformation |
| --- | --- |
| CN1CCN(C2=Nc3cc(Cl)ccc3Nc3ccccc32)CC1 [CLOZAPINE] | Compound metabolized |
| O=C(O)CCc1nc(-c2ccccc2)c(-c2ccccc2)o1 [OXAPROZIN] | Compound metabolized |
